Activity calls are given as the source filed them. The rule behind the calls is not given here.
Experiments:
[1] = system: DU-145; assay: Growth inhibition of human DU145 cells after 48 hrs by SRB assay; assay type: functional; conditions: DU-145, 48 h
[2] = system: MCF7; assay: Growth inhibition of human MCF7 cells after 48 hrs by SRB assay; assay type: functional; conditions: MCF7, 48 h
[3] = system: MDA-MB-231; assay: Growth inhibition of human MDA-MB-231 cells after 48 hrs by SRB assay; assay type: functional; conditions: MDA-MB-231, 48 h
[4] = Growth inhibition of human BT549 cells after 48 hrs by SRB assay; assay type: functional; conditions: BT-549, 48 h
[5] = system: MDA-MB-468; assay: Growth inhibition of human MDA-MB-468 cells after 48 hrs by SRB assay; assay type: functional; conditions: MDA-MB-468, 48 h
[6] = Growth inhibition of human LOXIMVI cells after 48 hrs by SRB assay; assay type: functional; conditions: LOX IMVI
[7] = system: M14; assay: Growth inhibition of human M14 cells after 48 hrs by SRB assay; assay type: functional; conditions: M14, 48 h
[8] = system: MDA-MB-435; assay: Growth inhibition of human MDA-MB-435 cells after 48 hrs by SRB assay; assay type: functional; conditions: MDA-MB-435, 48 h
[9] = system: SK-MEL-2; assay: Growth inhibition of human SK-MEL-2 cells after 48 hrs by SRB assay; assay type: functional; conditions: SK-MEL-2, 48 h
[10] = system: SK-MEL-5; assay: Growth inhibition of human SK-MEL-5 cells after 48 hrs by SRB assay; assay type: functional; conditions: SK-MEL-5, 48 h
[11] = Growth inhibition of human UACC62 cells after 48 hrs by SRB assay; assay type: functional; conditions: UACC-62, 48 h
[12] = Growth inhibition of human UACC257 cells after 48 hrs by SRB assay; assay type: functional; conditions: UACC-257, 48 h
[13] = system: MCF7; assay: Growth inhibition of human MCF7 cells assessed as cell viability at 4 uM after 24 hrs by MTT assay; assay type: functional, cell-based
[14] = system: MCF7; assay: Cell cycle arrest in human MCF7 cells assessed as accumulation at G0/G1 phase at 4 uM after 24 hrs by propidium iodide staining-based flow cytometry (reference value: 64.04%); assay type: functional
[15] = system: MCF7; assay: Cell cycle arrest in human MCF7 cells assessed as accumulation at S phase at 4 uM after 24 hrs by propidium iodide staining-based flow cytometry (reference value: 20.17%); assay type: functional
[16] = system: MCF7; assay: Cell cycle arrest in human MCF7 cells assessed as accumulation at G2/M phase at 4 uM after 24 hrs by propidium iodide staining-based flow cytometry (reference value: 15.79%); assay type: functional
[17] = system: MCF7; assay: Induction of cell cycle arrestin human MCF7 cells assessed as downregulation of cyclin D1 protein expression at 4 uM by Western blot analysis; assay type: functional, cell-based
[18] = system: MCF7; assay: Induction of cell cycle arrestin human MCF7 cells assessed as downregulation of CDK2 protein expression at 4 uM by Western blot analysis; assay type: functional, cell-based
[19] = system: MCF7; assay: Induction of cell cycle arrestin human MCF7 cells assessed as downregulation of cyclin E protein expression at 4 uM by Western blot analysis; assay type: functional, cell-based
[20] = system: MCF7; assay: Induction of cell cycle arrestin human MCF7 cells assessed as downregulation of E2F-1 protein expression at 4 uM by Western blot analysis; assay type: functional, cell-based
[21] = system: MCF7; assay: Induction of apoptosis in human MCF7 cells assessed as upregulation of p27 protein expression at 4 uM by Western blot analysis relative to control; assay type: functional, cell-based
[22] = system: MCF7; assay: Induction of apoptosis in human MCF7 cells assessed as of p21 protein expression at 4 uM by Western blot analysis relative to control; assay type: functional, cell-based
[23] = system: MCF7; assay: Induction of apoptosis in human MCF7 cells expressing P21 promoter -145/+8 with luciferase gene assessed as upregulation of p21 protein expression at 4 uM by Western blot analysis relative to control; assay type: functional, cell-based
[24] = system: MCF7; assay: Induction of apoptosis in human MCF7 cells assessed as decrease in procaspase 9 level at 4 uM by Western blot analysis relative to control; assay type: functional, cell-based
[25] = system: MCF7; assay: Induction of apoptosis in human MCF7 cells assessed as increase in TNFR1 protein level at 4 uM by Western blot analysis relative to control; assay type: functional, cell-based
[26] = system: CCRF-CEM; assay: Growth inhibition of human CCRF-CEM cells after 48 hrs by SRB assay; assay type: functional
[27] = system: K562; assay: Growth inhibition of human K562 cells after 48 hrs by SRB assay; assay type: functional; conditions: K562, 48 h
[28] = Growth inhibition of human MOLT4 cells after 48 hrs by SRB assay; assay type: functional; conditions: MOLT-4, 48 h
[29] = system: RPMI-8226; assay: Growth inhibition of human RPMI8226 cells after 48 hrs by SRB assay; assay type: functional; conditions: RPMI-8226, 48 h
[30] = Growth inhibition of human EKVX cells after 48 hrs by SRB assay; assay type: functional
[31] = system: HOP-62; assay: Growth inhibition of human HOP62 cells after 48 hrs by SRB assay; assay type: functional; conditions: HOP-62, 48 h
[32] = system: NCI-H322M; assay: Growth inhibition of human NCI-H322M cells after 48 hrs by SRB assay; assay type: functional
[33] = system: COLO 205; assay: Growth inhibition of human COLO205 cells after 48 hrs by SRB assay; assay type: functional; conditions: COLO 205, 48 h
[34] = Growth inhibition of human HCC2998 cells after 48 hrs by SRB assay; assay type: functional; conditions: HCC 2998, 48 h
[35] = Growth inhibition of human HCT15 cells after 48 hrs by SRB assay; assay type: functional; conditions: HCT-15, 48 h
[36] = system: KM12; assay: Growth inhibition of human KM12 cells after 48 hrs by SRB assay; assay type: functional; conditions: KM12, 48 h
[37] = system: SF-268; assay: Growth inhibition of human SF268 cells after 48 hrs by SRB assay; assay type: functional; conditions: SF-268, 48 h
[38] = Growth inhibition of human SF295 cells after 48 hrs by SRB assay; assay type: functional; conditions: SF-295, 48 h
[39] = Growth inhibition of human SF539 cells after 48 hrs by SRB assay; assay type: functional; conditions: SF-539, 48 h
[40] = system: SNB-19; assay: Growth inhibition of human SNB19 cells after 48 hrs by SRB assay; assay type: functional; conditions: SNB-19, 48 h
[41] = system: SNB-75; assay: Growth inhibition of human SNB75 cells after 48 hrs by SRB assay; assay type: functional; conditions: SNB-75, 48 h
[42] = Growth inhibition of human OVCAR3 cells after 48 hrs by SRB assay; assay type: functional; conditions: OVCAR-3, 48 h
[43] = Growth inhibition of human OVCAR4 cells after 48 hrs by SRB assay; assay type: functional; conditions: OVCAR-4, 48 h
[44] = Growth inhibition of human OVCAR8 cells after 48 hrs by SRB assay; assay type: functional; conditions: OVCAR-8, 48 h
[45] = system: SK-OV-3; assay: Growth inhibition of human SKOV3 cells after 48 hrs by SRB assay; assay type: functional; conditions: SK-OV-3, 48 h
[46] = system: A498; assay: Growth inhibition of human A498 cells after 48 hrs by SRB assay; assay type: functional; conditions: A498, 48 h
[47] = system: ACHN; assay: Growth inhibition of human ACHN cells after 48 hrs by SRB assay; assay type: functional
[48] = system: CAKI-1; assay: Growth inhibition of human Caki1 cells after 48 hrs by SRB assay; assay type: functional; conditions: CAKI-1, 48 h
[49] = system: SN12C; assay: Growth inhibition of human SN12C cells after 48 hrs by SRB assay; assay type: functional

COc1ccc(C(=O)/C=C/c2c(C(F)(F)F)nc3ccccn23)cc1OC
GI50 [1]: 650 nM | GI50 [2]: 560 nM | GI50 [3]: 3060 nM | GI50 [4]: 2590 nM | GI50 [5]: 1900 nM | GI50 [6]: 950 nM | GI50 [7]: 3630 nM | GI50 [8]: 2040 nM | GI50 [9]: 1720 nM | GI50 [10]: 1630 nM | GI50 [11]: 2220 nM | GI50 [12]: 620 nM | inhibition [13]: Active | Activity [14]: 97.86% | Activity [15]: 1.83% | Activity [16]: 0.31% | inhibition [17]: Active | inhibition [18]: Active | inhibition [19]: Active | inhibition [20]: inactive | Activity [21]: Active | Activity [22]: inactive | Activity [23]: Active | inhibition [24]: Active | Activity [25]: Active | GI50 [26]: 440 nM | GI50 [27]: 360 nM | GI50 [28]: 1030 nM | GI50 [29]: 290 nM | GI50 [30]: 3740 nM | GI50 [31]: 3010 nM | GI50 [32]: 3150 nM | GI50 [33]: 1920 nM | GI50 [34]: 480 nM | GI50 [35]: 1130 nM | GI50 [36]: 570 nM | GI50 [37]: 1570 nM | GI50 [38]: 3150 nM | GI50 [39]: 1650 nM | GI50 [40]: 1590 nM | GI50 [41]: 2350 nM | GI50 [42]: 1980 nM | GI50 [43]: 2490 nM | GI50 [44]: 1310 nM | GI50 [45]: 2490 nM | GI50 [46]: 2450 nM | GI50 [47]: 2850 nM | GI50 [48]: 2500 nM | GI50 [49]: 1910 nM

Source: ChEMBL document CHEMBL3217491, “Design, synthesis and biological evaluation of imidazopyridine/pyrimidine-chalcone derivatives as potential anticancer agents” (2010)
